# Measured values: patent US12162858B2, “Quinoline derivatives as inhibitors of AXL/MER RTK and CSF1R” (QURIENT CO., LTD., priority 2018, dated 2024)
# Where two headings read alike, the source gives them in different places.
# What was measured:
# CSF1R [1] = biological target: T1, CSF1R (Homo sapiens, UniProt P07333); experiment: KINOMEscan competition binding assay for CSF1R; design: DNA tag for qPCR (not a peptide); host or cells: E. coli/T7 phage or HEK-293
# Summary of the method: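 Values are either % inhibition at 0.1 uM, relative to DMSO (100% Ctrl) and a control compound (0% Ctrl), or Kd from an 11-point 3-fold series fitted with Hill slope −1. DNA-tagged kinase binds immobilized ligand beads with compound for 1 h at room temperature, and eluted kinase is measured by qPCR.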
# CSF1R [2] = biological target: T1, CSF1R; experiment: Cellular CSF1R inhibition ELISA (p-CSF1R, M-CSF-induced) using THP-1 cells; assay type: cell-based; design: THP-1 cells act as a model for human monocytes; endogenous in cells; host or cells: THP-1
# Summary of the method: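 THP-1 cells (2×10^5/well, RPMI/10% FBS) were treated with compound, 10 doses in 3-fold steps, for 24 h at 37 °C in 0.2% DMSO final. They were then stimulated 5 min with human M-CSF (10 ng/ml final) and lysed. p-CSF1R was read by sandwich ELISA (HRP/TMB), with a sigmoidal dose-response fit.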
# [3] = read-out: CSF1R kinase binding activity, Percent (%) inhibition
# [4] = read-out: CSF1R kinase binding activity, Range
# T1 sequence (P07333 20-972): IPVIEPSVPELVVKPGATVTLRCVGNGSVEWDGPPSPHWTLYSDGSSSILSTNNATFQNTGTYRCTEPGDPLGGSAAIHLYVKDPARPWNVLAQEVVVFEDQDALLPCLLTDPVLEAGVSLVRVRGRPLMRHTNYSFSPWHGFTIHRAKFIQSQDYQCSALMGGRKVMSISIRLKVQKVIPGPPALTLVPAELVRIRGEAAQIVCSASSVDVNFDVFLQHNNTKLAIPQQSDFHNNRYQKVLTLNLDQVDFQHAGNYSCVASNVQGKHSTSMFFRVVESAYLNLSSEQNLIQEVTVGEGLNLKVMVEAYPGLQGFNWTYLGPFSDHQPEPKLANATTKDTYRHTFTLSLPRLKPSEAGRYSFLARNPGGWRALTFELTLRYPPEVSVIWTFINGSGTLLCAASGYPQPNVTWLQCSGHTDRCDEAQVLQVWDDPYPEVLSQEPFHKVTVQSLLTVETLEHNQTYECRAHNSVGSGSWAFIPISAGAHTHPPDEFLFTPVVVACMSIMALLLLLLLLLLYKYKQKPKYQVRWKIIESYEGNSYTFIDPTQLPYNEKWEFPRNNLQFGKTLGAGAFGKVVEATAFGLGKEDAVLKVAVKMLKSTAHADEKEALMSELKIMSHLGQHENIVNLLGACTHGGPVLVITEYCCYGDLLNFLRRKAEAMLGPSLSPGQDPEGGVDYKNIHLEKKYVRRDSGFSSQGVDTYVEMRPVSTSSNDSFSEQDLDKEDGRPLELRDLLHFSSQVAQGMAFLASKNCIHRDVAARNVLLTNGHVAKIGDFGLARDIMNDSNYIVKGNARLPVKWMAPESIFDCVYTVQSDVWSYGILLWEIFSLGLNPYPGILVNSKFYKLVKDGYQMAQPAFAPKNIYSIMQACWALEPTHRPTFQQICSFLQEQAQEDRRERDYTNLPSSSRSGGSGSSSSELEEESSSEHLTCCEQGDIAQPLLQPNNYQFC
inhibition at 0.1 µM (CSF1R [1]; [3]) [%],inhibition at 0.1 µM (CSF1R [1]; [4]) [%],IC50 (CSF1R [2]) [nM],Kd (CSF1R [1]; read-out: CSF1R kinase binding activity (Kd)) [nM],SMILES
11,< 50,≥ 1000,,COc1cc2nccc(Oc3ccc(NC(=O)c4nn(C5CCNC5)cc4OCC(F)(F)F)cc3F)c2cc1OC (stereo not shown) [Compound 78]
78,50 to 80,500 to 1000,,COc1cc2nccc(Oc3ccc(NC(=O)c4nn(C5CCOC5)cc4OCC(F)(F)F)cc3C)c2cc1OC (stereo not shown) [Compound 85]
12,< 50,≥ 1000,,COc1cc2nccc(Oc3ccc(NC(=O)c4nn(CCN)cc4OCC(F)(F)F)cc3F)c2cc1OC [Compound 79]
46,< 50,≥ 1000,,COc1cc2nccc(Oc3ccc(NC(=O)c4nn(C5CCNC5)cc4OCC(F)(F)F)cc3C)c2cc1OC (stereo not shown) [Compound 81]
65,50 to 80,≥ 1000,,COc1cc2nccc(Oc3ccc(NC(=O)c4nn(C5CCN(C)C5)cc4OCC(F)(F)F)c(F)c3)c2cc1OC (stereo not shown) [Compound 94]
64,50 to 80,≥ 1000,,COc1cc2nccc(Oc3ccc(NC(=O)c4nn(CC(C)O)cc4OCC(F)(F)F)cc3F)c2cc1OC (stereo not shown) [Compound 80]
11,< 50,≥ 1000,,COc1cc2nccc(Oc3ccc(NC(=O)c4nn(C5CCNC5)cc4OCC(F)(F)F)cc3)c2cc1OC (stereo not shown) [Compound 86]
76,50 to 80,≥ 1000,,COc1cc2nccc(Oc3ccc(NC(=O)c4nn(C5CCOC5)cc4OCC(F)(F)F)c(F)c3)c2cc1OC (stereo not shown) [Compound 77]

# Second part, the compound before the results:
SMILES,inhibition at 0.1 µM (CSF1R [1]; [3]) [%],inhibition at 0.1 µM (CSF1R [1]; [4]) [%],IC50 (CSF1R [2]) [nM],Kd (CSF1R [1]; read-out: CSF1R kinase binding activity (Kd)) [nM]
COc1cc2nccc(Oc3ccc(NC(=O)c4nn(CC5COC5)cc4OCC(F)(F)F)c(F)c3)c2cc1OC [Compound 95],61,50 to 80,≥ 1000,
COCCn1cc(OCC(F)(F)F)c(C(=O)Nc2ccc(Oc3ccnc4cc(OC)c(OC)cc34)c(C)c2)n1 [Compound 84],97,≥ 80,500 to 1000,
COc1cc2nccc(Oc3ccc(NC(=O)c4nn(CCC5CCCC5)cc4OCC(F)(F)F)nc3)c2cc1OC [Compound 93],89,≥ 80,< 500,
COc1cc2nccc(Oc3ccc(NC(=O)c4nn(CC(C)O)cc4OCC(F)(F)F)cc3)c2cc1OC (stereo not shown) [Compound 89],56,50 to 80,500 to 1000,
COc1cc2nccc(Oc3ccc(NC(=O)c4nn(CC(C)C)cc4OCC(F)(F)F)cc3)c2cc1OC [Compound 87],71,50 to 80,500 to 1000,
COc1cc2nccc(Oc3ccc(NC(=O)c4nn(C5CCOCC5)cc4OCC(F)(F)F)nc3)c2cc1OC [Compound 90],95,≥ 80,< 500,
COc1cc2nccc(Oc3ccc(NC(=O)c4nn(CCN)cc4OCC(F)(F)F)cc3C)c2cc1OC [Compound 82],35,< 50,≥ 1000,
COc1cc2nccc(Oc3ccc(NC(=O)c4nn(CC(C)O)cc4OCC(F)(F)F)cc3C)c2cc1OC (stereo not shown) [Compound 83],97,≥ 80,< 500,
COc1cc2nccc(Oc3ccc(NC(=O)c4nn(CCN)cc4OCC(F)(F)F)cc3)c2cc1OC [Compound 88],21,< 50,≥ 1000,
COc1cc2nccc(Oc3ccc(NC(=O)c4nn(C5CC5)cc4OCC(F)(F)F)nc3)c2cc1OC [Compound 5],97,≥ 80,< 500,< 100
COc1cc2nccc(Oc3ccc(NC(=O)c4nn(C5CCN(C)C5)cc4OCC(F)(F)F)nc3)c2cc1OC (stereo not shown) [Compound 91],99,≥ 80,< 500,
